Results: patent US20230219965A1 (KSQ Therapeutics, Inc., priority 2020, published 2023)
Read-outs that look alike come from different tables or passages of the source.

What was measured:
[1] = ADME solubility determination in PBS at pH 2.0 and pH 7.4; format: physicochemical; settings: phosphate buffered saline, 25 °C, thermodynamic from solid
Protocol: Certain Compounds of the Disclosure were assessed for ADME solubility at pH 2.0 and pH 7.4.
Stock solutions were prepared by adding each compound to DMSO at a concentration of 10 mM. Samples were prepared by adding 50 μL of each stock solution to separate vials. The vials were loaded onto a 96-well rack and dried. 500 μL of Phosphate Buffered Saline (PBS) pH 7.4 or PBS pH 2.0 were added into each vial. The vials were then shaken at 25° C. and 1,100 rpm for 24 hours.
After 24 hours, the vials were centrifuged at 3220 G and 25° C. for 30 minutes. The supernatant fluid was analyzed by LC-MS/MS against a standard of known concentration. The solubility of each sample was then calculated using the equation below: […]
where DF is the dilution factor.

[2] = Liver microsomal metabolic stability, human liver microsomes (HLM); settings: human, liver microsomes
Protocol: Samples were prepared by adding 222.5 μL of a master solution (100 mM phosphate buffer and 1 mg/mL liver microsomes (HLM or RLM)) and 25 μL of a 10 mM NADPH solution to incubation plates, which were then warmed for 10 min. Each compound was separately dissolved in DMSO to prepare 10 mM stock solutions, which were then diluted to 100 μM with acetonitrile. A reaction was started by adding 2.5 μL of the 100 μM solution of each compound to separate incubation plates such that the final concentration of for each compound in each plate was 1 μM.
25 μL aliquots of each sample were taken at 0.5, 5, 10, 15, 20 and 30 minutes, and the reaction was stopped by adding 5 volumes of cold acetonitrile with IS (100 nM alprazolam, 200 nM caffeine and 100 nM tolbutamide). The samples were then centrifuged at 3,220 G for 30 minutes, and 100 μL of the supernatant fluid was mixed with 100 μL of ultra-pure H2O.
The samples were then analyzed by LC-MS/MS. Peak areas were determined from extracted ion chromatograms. Slope values (k) were determined by linear regression of the natural logarithm of the remaining percentage of the compound vs. incubation time curve. The in vitro half-life (in vitro t1/2) was determined from the slope value using the following equation:

[3] = Liver microsomal metabolic stability, rat liver microsomes (RLM); settings: rat, liver microsomes, t1/2 (min) in RLM, 1 μM compound, 1 mg/mL microsomes, NADPH
USP1/UAF1 enzyme = USP1/UAF1 enzyme (Homo sapiens, UniProt O94782); experiment: USP1/UAF1 deubiquitination assay (ubiquitin-rhodamine 110 substrate); format: biochemical; settings: read-out: USP1 IC50 (Ub-Rho)
How it was run: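 Cleavage of 150 nM ubiquitin-rhodamine 110 by 0.05 nM USP1/UAF1 was followed as fluorescence (Ex480/Em540, kinetic, 30 min) in Tris-HCl pH 7.8 buffer with EDTA, BSA, DTT and Tween-20. Compounds, top 10 μM, were preincubated with enzyme 10 min; % inhibition against no-enzyme and DMSO wells gave four-parameter IC50s.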

[4] = pH 2, aqueous buffer, PBS pH 2.0, 25° C., read-out: Solubility at pH 2.0
[5] = pH 7.4, aqueous buffer, PBS pH 7.4, 25° C., read-out: Solubility at pH 7.4

Chain of USP1/UAF1 enzyme (O94782 whole entry): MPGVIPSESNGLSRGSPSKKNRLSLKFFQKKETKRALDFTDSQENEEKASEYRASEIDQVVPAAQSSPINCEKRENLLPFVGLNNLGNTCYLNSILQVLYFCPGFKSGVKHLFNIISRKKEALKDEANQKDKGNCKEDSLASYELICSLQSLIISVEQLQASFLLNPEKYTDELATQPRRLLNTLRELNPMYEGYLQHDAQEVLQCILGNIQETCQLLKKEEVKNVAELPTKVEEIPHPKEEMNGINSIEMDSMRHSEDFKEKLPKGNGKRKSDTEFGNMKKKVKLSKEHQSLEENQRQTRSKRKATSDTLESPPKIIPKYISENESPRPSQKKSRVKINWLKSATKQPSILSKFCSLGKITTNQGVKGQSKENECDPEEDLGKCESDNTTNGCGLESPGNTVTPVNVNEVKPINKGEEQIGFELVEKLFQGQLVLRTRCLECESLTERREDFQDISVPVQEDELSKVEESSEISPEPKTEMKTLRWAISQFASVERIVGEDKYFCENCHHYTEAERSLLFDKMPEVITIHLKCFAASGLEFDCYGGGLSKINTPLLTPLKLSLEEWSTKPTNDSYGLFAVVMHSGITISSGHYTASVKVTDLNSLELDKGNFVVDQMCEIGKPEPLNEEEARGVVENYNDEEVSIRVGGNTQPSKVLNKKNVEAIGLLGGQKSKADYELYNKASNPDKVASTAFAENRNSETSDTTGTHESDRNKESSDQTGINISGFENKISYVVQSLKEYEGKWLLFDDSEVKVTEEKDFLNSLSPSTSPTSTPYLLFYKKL
Chain of USP1/UAF1 enzyme (Q8TAF3 whole entry partner): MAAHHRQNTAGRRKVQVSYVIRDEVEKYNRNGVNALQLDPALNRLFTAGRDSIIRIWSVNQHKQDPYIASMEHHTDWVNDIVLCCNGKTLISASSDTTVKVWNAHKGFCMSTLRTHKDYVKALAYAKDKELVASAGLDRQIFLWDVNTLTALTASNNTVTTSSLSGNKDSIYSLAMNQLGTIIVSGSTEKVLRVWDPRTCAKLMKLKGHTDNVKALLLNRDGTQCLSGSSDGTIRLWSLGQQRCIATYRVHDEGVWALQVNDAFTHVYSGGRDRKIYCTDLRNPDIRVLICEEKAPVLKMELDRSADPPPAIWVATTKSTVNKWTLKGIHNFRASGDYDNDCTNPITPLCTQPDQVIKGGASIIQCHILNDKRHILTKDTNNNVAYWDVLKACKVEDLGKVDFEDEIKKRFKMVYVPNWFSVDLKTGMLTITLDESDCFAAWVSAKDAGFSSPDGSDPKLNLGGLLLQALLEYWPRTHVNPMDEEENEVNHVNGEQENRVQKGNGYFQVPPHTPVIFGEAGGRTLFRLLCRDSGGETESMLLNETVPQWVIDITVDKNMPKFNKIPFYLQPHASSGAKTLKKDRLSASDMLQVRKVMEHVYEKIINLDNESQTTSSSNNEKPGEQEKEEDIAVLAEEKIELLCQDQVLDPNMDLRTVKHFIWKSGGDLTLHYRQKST

| Structure (SMILES) | solubility at 24 h [1, 4] | solubility at 24 h [1, 5] | half-life at 1 μM [2] | half-life at 1 μM [3] | IC50 (USP1/UAF1 enzyme) |
| --- | --- | --- | --- | --- | --- |
| CCn1cc(C(F)(F)F)nc1-c1ccc(N[C@@H]2CCCn3nc(-c4c(Cl)cnn4[C@H](C)CF)cc32)cc1 (single isomer, unassigned) [Example 323] | < 10 µM | < 10 µM | > 25 min | > 25 min | < 100 nM |
| CCn1cc(C(F)(F)F)nc1-c1ccc(N[C@@H]2CCCn3nc(-c4c(Cl)cnn4[C@@H](C)CF)cc32)cc1 (single isomer, unassigned) [Example 324] | < 10 µM | < 10 µM | > 25 min | > 25 min | < 100 nM |
| COc1ncnc(C2CC2)c1-c1cc2n(n1)CCC(=O)N2Cc1ccc(-n2nc(C(F)(F)F)cc2C)cc1 [Example 4, 2-(4-cyclopropyl-6-methoxypyrimidin-5-yl)-4-(4-(5-methyl-3-(trifluoromethyl)-1H-pyrazol-1-yl)benzyl)-6,7-dihydropyrazolo[1,5-a]pyrimidin-5(4H)-one] | < 10 µM | < 10 µM | > 25 min | > 25 min | < 100 nM |
| COc1ncnc(C2CC2)c1-c1cc2n(n1)CCC(=O)N2Cc1ccc(-n2nc(C#N)cc2OC)c(F)c1 [Example 8, (4-((2-(4-cyclopropyl-6-methoxypyrimidin-5-yl)-5-oxo-6,7-dihydropyrazolo[1,5-a]pyrimidin-4(5H)-yl)methyl)-2-fluorophenyl)-5-methoxy-1H-pyrazole-3-carbonitrile] | ≥ 10 µM | < 10 µM | > 25 min | > 25 min | 100 to 500 nM |
| COc1ccnc(C(C)C)c1-c1cc2n(n1)CCC(=O)N2Cc1ccc(-c2nc(C(F)(F)F)cn2C)cc1 [Example 13, 2-(2-isopropyl-4-methoxypyridin-3-yl)-4-(4-(1-methyl-4-(trifluoromethyl)-1H-imidazol-2-yl)benzyl)-6,7-dihydropyrazolo[1,5-a]pyrimidin-5(4H)-one] | ≥ 10 µM | ≥ 10 µM | < 25 min | < 25 min | 100 to 500 nM |
| Cn1cc(C(F)(F)F)nc1-c1ccc(CN2C(=O)CCn3nc(-c4c(Cl)cnn4C4CCC4)cc32)cc1F [Example 19, 2-(4-chloro-1-cyclobutyl-1H-pyrazol-5-yl)-4-(3-fluoro-4-(1-methyl-4-(trifluoromethyl)-1H-imidazol-2-yl)benzyl)-6,7-dihydropyrazolo[1,5-a]pyrimidin-5(4H)-one] | < 10 µM | < 10 µM | < 25 min | < 25 min | < 100 nM |
| COCCOc1cc(CN2C(=O)CCn3nc(-c4c(Cl)cnn4C(C)C)nc32)ccc1-c1nc(C(F)(F)F)cn1C(C)C [Example 167] | < 10 µM | < 10 µM |  |  | 100 to 500 nM |
| Cn1cc(C(F)(F)F)nc1-c1ccc(Cn2c(=O)ccn3nc(-c4c(OC(F)F)ncnc4C4CC4)nc23)cc1F [Example 385, 2-(4-cyclopropyl-6-(difluoromethoxy)pyrimidin-5-yl)-4-(3-fluoro-4-(1-methyl-4-(trifluoromethyl)-1H-imidazol-2-yl)benzyl)-[1,2,4]triazolo[1,5-a]pyrimidin-5(4H)-one] |  |  |  |  | < 100 nM |
| COc1ncnc(C2CC2)c1-c1nc2n(Cc3ccc(-c4nc(C(F)(F)F)cn4C)c(F)c3)c(=O)ccn2n1 [Example 386, 2-(4-cyclopropyl-6-methoxypyrimidin-5-yl)-4-(3-fluoro-4-(1-methyl-4-(trifluoromethyl)-1H-imidazol-2-yl)benzyl)-[1,2,4]triazolo[1,5-a]pyrimidin-5(4H)-one] |  |  |  |  | < 100 nM |
| COc1ncnc(C2CC2)c1-c1cc2n(n1)CCCC2Nc1ccc(-c2nc(C(F)(F)F)cn2CCF)cc1 (centres unmarked) [Example 387, 2-(4-cyclopropyl-6-methoxypyrimidin-5-yl)-N-(4-(1-(2-fluoroethyl)-4-(trifluoromethyl)-1H-imidazol-2-yl)phenyl)-4,5,6,7-tetrahydropyrazolo[1,5-a]pyridin-4-amine] |  |  |  |  | < 100 nM |
| COc1ncnc(C2CC2)c1-c1cc2n(n1)CCCC2Nc1ccc(-c2nc(C(F)(F)F)cn2C)c(F)c1 (centres unmarked) [Example 388, 2-(4-cyclopropyl-6-methoxypyrimidin-5-yl)-N-(3-fluoro-4-(1-methyl-4-(trifluoromethyl)-1H-imidazol-2-yl)phenyl)-4,5,6,7-tetrahydropyrazolo[1,5-a]pyridin-4-amine] |  |  |  |  | < 100 nM |
| [2H]C([2H])([2H])C([2H])([2H])n1cc(C(F)(F)F)nc1-c1ccc(NC2CCCn3nc(-c4c(OC)ncnc4C4CC4)cc32)cc1 (centres unmarked) [Example 389, 2-(4-cyclopropyl-6-methoxypyrimidin-5-yl)-N-(4-(1-(ethyl-d5)-4-(trifluoromethyl)-1H-imidazol-2-yl)phenyl)-4,5,6,7-tetrahydropyrazolo[1,5-a]pyridin-4-amine] |  |  |  |  | < 100 nM |
| CC(CF)n1cc(C(F)(F)F)nc1-c1ccc(NC2CCCn3nc(-c4c(Cl)cnn4C(C)C)cc32)cc1 (centres unmarked) [Example 390, 2-(4-chloro-1-isopropyl-1H-pyrazol-5-yl)-N-(4-(1-(1-fluoropropan-2-yl)-4-(trifluoromethyl)-1H-imidazol-2-yl)phenyl)-4,5,6,7-tetrahydropyrazolo[1,5-a]pyridin-4-amine] |  |  |  |  | < 100 nM |
| CCn1cc(C(F)(F)F)nc1-c1ccc(Cn2c(=O)c(C)cn3nc(-c4c(OC(F)F)ncnc4C4CC4)nc23)cc1 [Example 392, 2-(4-cyclopropyl-6-(difluoromethoxy)pyrimidin-5-yl)-4-(4-(1-ethyl-4-(trifluoromethyl)-1H-imidazol-2-yl)benzyl)-6-methyl-[1,2,4]triazolo[1,5-a]pyrimidin-5(4H)-one] |  |  |  |  | < 100 nM |

Continued, values first:

| solubility at 24 h [1, 4] | solubility at 24 h [1, 5] | half-life at 1 μM [2] | half-life at 1 μM [3] | IC50 (USP1/UAF1 enzyme) | Structure (SMILES) |
| --- | --- | --- | --- | --- | --- |
|  |  |  |  | < 100 nM | COc1ncnc(C2CC2)c1-c1nc2n(n1)CCC(=O)N2C(C)c1ccc(-c2nc(C(F)(F)F)cn2C)cc1 (centres unmarked) [Example 378, 2-(4-cyclopropyl-6-methoxypyrimidin-5-yl)-4-(1-(4-(1-methyl-4-(trifluoromethyl)-1H-imidazol-2-yl)phenyl)ethyl)-6,7-dihydro-[1,2,4]triazolo[1,5-a]pyrimidin-5(4H)-one] |
|  |  |  |  | < 100 nM | CCn1cc(C(F)(F)F)nc1-c1ccc(CN2C(=O)[C@@H](C)Cn3nc(-c4c(OC)ncnc4C4CC4)nc32)cc1 [Example 381, (S)-2-(4-cyclopropyl-6-methoxypyrimidin-5-yl)-4-(4-(1-ethyl-4-(trifluoromethyl)-1H-imidazol-2-yl)benzyl)-6-methyl-6,7-dihydro-[1,2,4]triazolo[1,5-a]pyrimidin-5(4H)-one] |
|  |  |  |  | < 100 nM | CCn1cc(C(F)(F)F)nc1-c1ccc(CN2C(=O)[C@H](C)Cn3nc(-c4c(OC)ncnc4C4CC4)nc32)cc1 [Example 382, (R)-2-(4-cyclopropyl-6-methoxypyrimidin-5-yl)-4-(4-(1-ethyl-4-(trifluoromethyl)-1H-imidazol-2-yl)benzyl)-6-methyl-6,7-dihydro-[1,2,4]triazolo[1,5-a]pyrimidin-5(4H)-one] |
|  |  |  |  | 100 to 500 nM | COc1ncnc(C2CC2)c1-c1nc2n(n1)CC(C)C(=O)N2Cc1ccc(-c2nc(C(F)(F)F)cn2C(C)CF)cc1 (centres unmarked) [Example 383, 2-(4-cyclopropyl-6-methoxypyrimidin-5-yl)-4-(4-(1-(1-fluoropropan-2-yl)-4-(trifluoromethyl)-1H-imidazol-2-yl)benzyl)-6-methyl-6,7-dihydro-[1,2,4]triazolo[1,5-a]pyrimidin-5(4H)-one] |
|  |  |  |  | < 100 nM | CCn1cc(C(F)(F)F)nc1-c1ccc(C(C)N2C(=O)C(C)Cn3nc(-c4c(OC)ncnc4C4CC4)nc32)cc1 (centres unmarked) [Example 384, 2-(4-cyclopropyl-6-methoxypyrimidin-5-yl)-4-(1-(4-(1-ethyl-4-(trifluoromethyl)-1H-imidazol-2-yl)phenyl)ethyl)-6-methyl-6,7-dihydro-[1,2,4]triazolo[1,5-a]pyrimidin-5(4H)-one] |
|  |  |  |  | < 100 nM | CCn1cc(C(F)(F)F)nc1-c1ccc(Cn2c(=O)c(C)cn3nc(-c4c(OC)ncnc4C4CC4)nc23)cc1 [Example 391, 2-(4-cyclopropyl-6-methoxypyrimidin-5-yl)-4-(4-(1-ethyl-4-(trifluoromethyl)-1H-imidazol-2-yl)benzyl)-6-methyl-[1,2,4]triazolo[1,5-α]pyrimidin-5(4H)-one] |
|  |  |  |  | < 100 nM | COc1ncnc(C2CC2)c1-c1cc2n(n1)CCC[C@@H]2Oc1ccc(-c2nc(C(F)(F)F)cn2C(C)CF)cc1 (stereo partly drawn) [Example 393, (4S)-2-(4-cyclopropyl-6-methoxypyrimidin-5-yl)-4-(4-(1-(1-fluoropropan-2-yl)-4-(trifluoromethyl)-1H-imidazol-2-yl)phenoxy)-4,5,6,7-tetrahydropyrazolo[1,5-α]pyridine] |
